Measured values as given in patent US20260210939A1, “MODIFIED OLFACTORY RECEPTORS” (GIVAUDAN SA, priority 2022, published 2026).
Where two headings read alike, the source gives them in different places. Values belong to the compound of their own block, whether it stands above or below them.

Tests used:
[1] = biological target: human class II OR identified in the library screening (Homo sapiens, UniProt P34982)
Target sequence in this assay (P34982 whole entry, the tested form may be a part): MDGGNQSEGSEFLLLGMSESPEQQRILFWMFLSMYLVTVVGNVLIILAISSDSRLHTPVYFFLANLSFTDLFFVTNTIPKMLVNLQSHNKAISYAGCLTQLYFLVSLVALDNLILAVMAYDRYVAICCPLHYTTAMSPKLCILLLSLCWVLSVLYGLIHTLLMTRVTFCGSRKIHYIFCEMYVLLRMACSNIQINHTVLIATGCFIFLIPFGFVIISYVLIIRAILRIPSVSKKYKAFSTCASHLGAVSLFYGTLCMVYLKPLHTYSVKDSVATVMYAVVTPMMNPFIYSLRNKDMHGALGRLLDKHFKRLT
Procedure: (§1) Selected ligand—OR pairs were then tested in a confirmatory test with a dose response analysis.
(§2) For selected receptors, the wild-type sequence was synthesized and cloned into pcDNA3.1 (+). Dose-response analysis with the cognate ligand was then performed for both the wild-type and the modified sequence.

[2] = system: human class II OR identified in the library screening
Procedure: as §1, §2

[3] = biological target: human class II OR identified in the library screening (Homo sapiens, UniProt P34982); assay: Confirmatory dose-response analysis of library-hit OR with cognate ligand, wild-type vs C-terminal domain SEQ ID NO: 221 (Table 17); conditions: read-out: Potency, EC50 changed C-term; OR1D2, modified C-terminus SEQ ID NO: 221 (SEQ ID NO: 336);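 also: Wild-type receptor sequences expressed from the pcDNA3.1(+) vector and compared with the C-terminally modified receptors in dose-response tests using each receptor's cognate ligand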
Target sequence in this assay (P34982 1-291): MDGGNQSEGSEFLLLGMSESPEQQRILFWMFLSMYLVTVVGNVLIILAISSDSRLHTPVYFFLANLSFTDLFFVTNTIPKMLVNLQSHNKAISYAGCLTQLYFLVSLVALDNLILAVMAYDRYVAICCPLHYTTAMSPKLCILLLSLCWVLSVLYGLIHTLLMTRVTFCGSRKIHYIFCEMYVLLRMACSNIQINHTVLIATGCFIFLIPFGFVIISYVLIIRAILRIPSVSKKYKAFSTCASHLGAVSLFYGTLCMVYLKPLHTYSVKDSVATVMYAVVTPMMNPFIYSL
Procedure: as §1, §2

[4] = system: human class II OR identified in the library screening; assay: as above; conditions: for Fold improvement efficacy: maximal induction; for EC50: read-out: Potency, EC50 changed C-term; for Detection threshold; Fold improvement efficacy: under detection threshold
Procedure: as §1, §2

OR7C1 [5] = biological target: T1, OR7C1 (Homo sapiens, UniProt O76099, D296E/G302K/M297V/R299D/T295K/V126I); assay: CRE-luciferase assay, HEK293T cells expressing OR7C1 (wild-type / modified C-terminus); assay type: cell-based
T1 construct: Improved functional expression of modified OR-genes containing the truncated, optimized C-terminus; expressed in transfected cells; host or cells: HEK293T stably expressing human RTP1S(V227I) and RTP2(L220R)
T1 sequence (O76099 with tags, fused parts or gaps V126I/T295K/D296E/M297V/R299D/G302K): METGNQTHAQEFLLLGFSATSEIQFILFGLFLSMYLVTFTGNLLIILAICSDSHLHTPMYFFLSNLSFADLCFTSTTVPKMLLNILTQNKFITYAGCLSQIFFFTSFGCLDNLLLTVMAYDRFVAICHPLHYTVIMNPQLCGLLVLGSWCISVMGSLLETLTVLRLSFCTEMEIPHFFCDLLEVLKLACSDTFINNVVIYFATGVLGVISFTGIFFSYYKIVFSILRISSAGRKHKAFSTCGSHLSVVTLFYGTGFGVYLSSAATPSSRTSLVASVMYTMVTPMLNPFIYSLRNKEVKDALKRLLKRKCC
From the text: To test for possible variants of the sequence […]CC (SEQ ID NO: 86) leading to similar improved functional expression, different point mutations were introduced into the first 16 amino acids of this sequence (corresponding to […], SEQ ID NO: 10) and the variants were fused after the TM7 with OR7C1. […] The test concentrations were selected to fall into the range of partial activity of the wild-type sequence.

OR7A17 and OR7C1 = assay: Cells expressing one or both of OR7A17 and OR7C1 (C-terminal domain SEQ ID NO: 221), luciferase; assay type: cell-based, human
From the text: In order to screen for a specific odor description, some or all members of a given set of OR which was identified to be specific for a given odor description as shown in example 25 can be combined in a screening for new odorants or new odorant mixtures. The screening on the different OR can be performed sequentially or in parallel assays with the individual OR of the OR set. Additionally, some or all of the OR of the OR set specific for the odor-description can also be co-expressed in a single cell line. Thus, to screen for woody-ambery molecules, cells were either separately or simultaneously transfected with two plasmids coding for the optimized OR7A17 and OR7C1 both with the C-terminal domain of SEQ ID NO: 221. […] Cells expressing both receptors become functional sensors for the Ambery-woody odor description and detect both ligands down to low concentrations.

OR7C1 [6] = biological target: T1, OR7C1; assay: CRE-luciferase assay, HEK293T cells expressing OR7C1 (wild-type / modified C-terminus); assay type: cell-based; remark: listed apart in the source
[7] = biological target: human class II OR identified in the library screening (Homo sapiens, UniProt A6NM03, Y28C)
Procedure: as §1, §2

[8] = biological target: human class II OR identified in the library screening (Homo sapiens, UniProt A6NM03); assay: Confirmatory dose-response analysis of library-hit OR with cognate ligand, wild-type vs C-terminal domain SEQ ID NO: 221 (Table 17); conditions: read-out: Potency, EC50 changed C-term; OR2AG2 (Y28C), modified C-terminus SEQ ID NO: 221 (SEQ ID NO: 379);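 also: Wild-type receptor sequences expressed from the pcDNA3.1(+) vector and compared with the C-terminally modified receptors in dose-response tests using each receptor's cognate ligand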
Procedure: as §1, §2

[9] = biological target: human class II OR identified in the library screening (Homo sapiens, UniProt O60403)
Procedure: as §1, §2

OR2T4 [10] = biological target: T2, OR2T4 (Homo sapiens, UniProt Q8NH00, D328E/G331D/M330K)
T2 sequence (Q8NH00 with tags, fused parts or gaps D328E/M330K/G331D): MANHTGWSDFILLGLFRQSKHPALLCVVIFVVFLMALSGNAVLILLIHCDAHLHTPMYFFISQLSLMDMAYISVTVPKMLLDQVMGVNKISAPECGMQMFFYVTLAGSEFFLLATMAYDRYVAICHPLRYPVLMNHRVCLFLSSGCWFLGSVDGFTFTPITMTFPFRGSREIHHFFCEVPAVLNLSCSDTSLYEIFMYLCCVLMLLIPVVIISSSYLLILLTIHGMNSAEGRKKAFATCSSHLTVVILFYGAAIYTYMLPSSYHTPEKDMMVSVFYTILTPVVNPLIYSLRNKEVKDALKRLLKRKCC

OR2T4 [11] = biological target: T2, OR2T4; assay: cell-based
[12] = biological target: T3, human class II OR identified in the library screening (Homo sapiens, UniProt Q8NGP4)
T3 sequence (Q8NGP4 whole entry, the tested form may be a part): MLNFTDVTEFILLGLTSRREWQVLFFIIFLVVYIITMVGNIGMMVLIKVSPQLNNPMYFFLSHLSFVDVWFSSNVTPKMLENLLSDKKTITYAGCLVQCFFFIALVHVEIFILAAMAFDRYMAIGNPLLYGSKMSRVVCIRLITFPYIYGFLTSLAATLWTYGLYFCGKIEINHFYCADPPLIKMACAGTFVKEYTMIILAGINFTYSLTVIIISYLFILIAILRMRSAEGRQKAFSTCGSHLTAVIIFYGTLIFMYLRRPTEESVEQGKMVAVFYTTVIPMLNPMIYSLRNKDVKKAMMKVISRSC
Procedure: as §1, §2

[13] = biological target: human class II OR identified in the library screening (Homo sapiens, UniProt Q8NGP4); assay: Confirmatory dose-response analysis of library-hit OR with cognate ligand, wild-type vs C-terminal domain SEQ ID NO: 221 (Table 17); conditions: read-out: Potency, EC50 changed C-term; OR5M3, modified C-terminus SEQ ID NO: 221 (SEQ ID NO: 559);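 also: Wild-type receptor sequences expressed from the pcDNA3.1(+) vector and compared with the C-terminally modified receptors in dose-response tests using each receptor's cognate ligand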
Target sequence in this assay (Q8NGP4 1-290): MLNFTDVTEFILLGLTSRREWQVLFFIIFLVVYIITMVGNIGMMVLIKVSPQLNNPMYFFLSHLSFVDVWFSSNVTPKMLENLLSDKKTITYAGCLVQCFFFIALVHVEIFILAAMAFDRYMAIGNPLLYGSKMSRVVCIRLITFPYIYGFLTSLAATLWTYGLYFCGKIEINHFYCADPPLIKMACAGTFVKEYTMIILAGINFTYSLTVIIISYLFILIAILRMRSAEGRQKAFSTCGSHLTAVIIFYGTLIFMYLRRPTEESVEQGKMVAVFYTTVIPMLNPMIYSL
Procedure: as §1, §2

[14] = biological target: T3, human class II OR identified in the library screening; assay: as above
Procedure: as §1, §2

[15] = biological target: human class II OR identified in the library screening (Homo sapiens, UniProt Q8NH80)
Target sequence in this assay (Q8NH80 whole entry, the tested form may be a part): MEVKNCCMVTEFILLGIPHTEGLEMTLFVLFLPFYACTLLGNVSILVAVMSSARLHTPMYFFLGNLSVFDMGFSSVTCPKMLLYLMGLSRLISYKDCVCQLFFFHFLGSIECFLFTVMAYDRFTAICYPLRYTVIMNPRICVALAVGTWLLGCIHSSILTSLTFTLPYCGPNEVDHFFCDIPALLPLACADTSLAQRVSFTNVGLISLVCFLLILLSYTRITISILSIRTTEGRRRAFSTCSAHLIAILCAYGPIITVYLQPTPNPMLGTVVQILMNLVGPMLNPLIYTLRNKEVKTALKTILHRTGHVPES
Procedure: as §1, §2

[16] = biological target: human class II OR identified in the library screening (Homo sapiens, UniProt Q8NH80); assay: Confirmatory dose-response analysis of library-hit OR with cognate ligand, wild-type vs C-terminal domain SEQ ID NO: 221 (Table 17); conditions: read-out: Potency, EC50 changed C-term; OR10D3, modified C-terminus SEQ ID NO: 221 (SEQ ID NO: 671);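 also: Wild-type receptor sequences expressed from the pcDNA3.1(+) vector and compared with the C-terminally modified receptors in dose-response tests using each receptor's cognate ligand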
Target sequence in this assay (Q8NH80 1-290): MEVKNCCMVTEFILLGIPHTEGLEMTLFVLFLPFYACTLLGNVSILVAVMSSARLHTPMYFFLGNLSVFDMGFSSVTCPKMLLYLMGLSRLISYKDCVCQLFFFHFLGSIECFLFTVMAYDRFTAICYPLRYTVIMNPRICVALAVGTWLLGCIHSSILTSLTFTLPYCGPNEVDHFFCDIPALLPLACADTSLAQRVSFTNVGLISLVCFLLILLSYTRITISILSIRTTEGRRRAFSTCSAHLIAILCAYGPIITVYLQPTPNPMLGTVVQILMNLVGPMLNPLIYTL
Procedure: as §1, §2

[17] = biological target: human class II OR identified in the library screening (Homo sapiens, UniProt A4D2G3)
Procedure: as §1, §2

[18] = biological target: human class II OR identified in the library screening (Homo sapiens, UniProt Q96R48)
Procedure: as §1, §2

[19] = biological target: human class II OR identified in the library screening (Homo sapiens, UniProt O76100)
Procedure: as §1, §2

[20] = biological target: human class II OR identified in the library screening (Homo sapiens, UniProt Q15622)
Procedure: as §1, §2

[21] = biological target: human class II OR identified in the library screening (Homo sapiens, UniProt Q8WZ84); assay: Confirmatory dose-response analysis of library-hit OR with cognate ligand, wild-type vs C-terminal domain SEQ ID NO: 221 (Table 17); conditions: OR8D1, wild-type sequence
Procedure: as §1, §2

[22] = biological target: human class II OR identified in the library screening (Homo sapiens, UniProt Q8NGC4); assay: as above; conditions: read-out: Potency, EC50 changed C-term; OR10G3 (S73G), modified C-terminus SEQ ID NO: 221 (SEQ ID NO: 673)
Procedure: as §1, §2

[23] = OR5M3, modified C-terminus SEQ ID NO: 221 vs wild-type
[24] = OR8D1, modified C-terminus SEQ ID NO: 221 (SEQ ID NO: 631)
[25] = OR8D1, modified C-terminus SEQ ID NO: 221 vs wild-type

Chain of human class II OR identified in the library screening (Homo sapiens, UniProt A6NM03, Y28C) (A6NM03 whole entry Y28C, the tested form may be a part): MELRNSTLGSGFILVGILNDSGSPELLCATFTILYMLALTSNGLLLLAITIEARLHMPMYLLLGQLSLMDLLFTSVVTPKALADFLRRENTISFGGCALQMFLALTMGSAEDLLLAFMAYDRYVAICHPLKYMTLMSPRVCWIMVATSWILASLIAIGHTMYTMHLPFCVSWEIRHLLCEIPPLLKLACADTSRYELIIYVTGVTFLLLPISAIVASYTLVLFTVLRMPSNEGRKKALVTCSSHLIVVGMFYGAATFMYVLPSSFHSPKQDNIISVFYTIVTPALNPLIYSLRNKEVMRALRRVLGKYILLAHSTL
Chain of human class II OR identified in the library screening (Homo sapiens, UniProt A4D2G3) (A4D2G3 whole entry): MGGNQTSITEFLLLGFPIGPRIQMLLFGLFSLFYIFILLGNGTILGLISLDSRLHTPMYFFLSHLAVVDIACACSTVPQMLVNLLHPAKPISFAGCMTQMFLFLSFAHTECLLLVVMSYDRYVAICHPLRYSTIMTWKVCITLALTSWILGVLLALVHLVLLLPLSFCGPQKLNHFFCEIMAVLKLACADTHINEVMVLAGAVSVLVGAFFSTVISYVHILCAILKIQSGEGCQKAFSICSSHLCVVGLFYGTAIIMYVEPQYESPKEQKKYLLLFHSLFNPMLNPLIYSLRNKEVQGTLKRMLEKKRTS
Chain of human class II OR identified in the library screening (Homo sapiens, UniProt Q8WZ84) (Q8WZ84 whole entry, the tested form may be a part): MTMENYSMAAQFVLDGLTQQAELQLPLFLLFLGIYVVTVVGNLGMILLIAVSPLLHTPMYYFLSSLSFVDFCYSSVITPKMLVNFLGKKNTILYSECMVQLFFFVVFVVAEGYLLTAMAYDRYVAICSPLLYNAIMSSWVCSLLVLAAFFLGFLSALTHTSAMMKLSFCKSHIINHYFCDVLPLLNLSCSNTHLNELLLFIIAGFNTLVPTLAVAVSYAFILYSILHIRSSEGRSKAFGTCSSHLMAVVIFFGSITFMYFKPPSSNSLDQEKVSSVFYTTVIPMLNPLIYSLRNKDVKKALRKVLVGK
Chain of human class II OR identified in the library screening (Homo sapiens, UniProt O76100) (O76100 whole entry): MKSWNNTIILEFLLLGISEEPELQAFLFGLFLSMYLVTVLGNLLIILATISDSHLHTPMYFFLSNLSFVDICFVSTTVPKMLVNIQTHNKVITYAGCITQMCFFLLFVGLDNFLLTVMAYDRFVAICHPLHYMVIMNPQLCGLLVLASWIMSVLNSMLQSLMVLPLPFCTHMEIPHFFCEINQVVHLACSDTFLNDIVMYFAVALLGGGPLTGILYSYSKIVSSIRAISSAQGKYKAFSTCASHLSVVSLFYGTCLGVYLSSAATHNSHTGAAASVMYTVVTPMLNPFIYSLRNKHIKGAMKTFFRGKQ
Chain of human class II OR identified in the library screening (Homo sapiens, UniProt Q15622) (Q15622 whole entry, the tested form may be a part): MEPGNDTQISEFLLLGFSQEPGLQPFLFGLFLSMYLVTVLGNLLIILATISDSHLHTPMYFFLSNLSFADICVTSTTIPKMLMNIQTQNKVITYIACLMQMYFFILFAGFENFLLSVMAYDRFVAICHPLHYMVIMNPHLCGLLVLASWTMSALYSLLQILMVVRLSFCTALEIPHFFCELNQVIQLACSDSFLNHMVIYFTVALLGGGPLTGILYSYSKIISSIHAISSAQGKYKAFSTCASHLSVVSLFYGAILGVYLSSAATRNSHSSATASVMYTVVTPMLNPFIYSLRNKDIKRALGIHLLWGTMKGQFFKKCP
Chain of human class II OR identified in the library screening (Homo sapiens, UniProt A6NM03) (A6NM03 1-292): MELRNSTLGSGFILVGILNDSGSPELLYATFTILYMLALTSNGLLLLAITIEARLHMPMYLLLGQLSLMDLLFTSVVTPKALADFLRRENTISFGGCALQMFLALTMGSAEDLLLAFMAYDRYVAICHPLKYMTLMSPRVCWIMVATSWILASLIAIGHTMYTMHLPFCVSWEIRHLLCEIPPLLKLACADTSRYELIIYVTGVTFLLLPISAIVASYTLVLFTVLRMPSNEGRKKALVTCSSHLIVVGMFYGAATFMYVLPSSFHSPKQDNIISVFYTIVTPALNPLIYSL
Chain of human class II OR identified in the library screening (Homo sapiens, UniProt Q8NGC4) (Q8NGC4 1-291): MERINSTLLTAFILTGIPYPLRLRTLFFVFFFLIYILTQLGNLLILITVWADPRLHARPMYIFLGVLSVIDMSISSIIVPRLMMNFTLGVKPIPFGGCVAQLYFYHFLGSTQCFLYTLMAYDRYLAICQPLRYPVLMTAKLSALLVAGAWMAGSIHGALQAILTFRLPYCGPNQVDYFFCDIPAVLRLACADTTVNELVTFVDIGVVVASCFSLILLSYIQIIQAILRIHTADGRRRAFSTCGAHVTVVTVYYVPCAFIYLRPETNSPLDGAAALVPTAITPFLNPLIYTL
Chain of human class II OR identified in the library screening (Homo sapiens, UniProt Q96R48) (Q96R48 whole entry): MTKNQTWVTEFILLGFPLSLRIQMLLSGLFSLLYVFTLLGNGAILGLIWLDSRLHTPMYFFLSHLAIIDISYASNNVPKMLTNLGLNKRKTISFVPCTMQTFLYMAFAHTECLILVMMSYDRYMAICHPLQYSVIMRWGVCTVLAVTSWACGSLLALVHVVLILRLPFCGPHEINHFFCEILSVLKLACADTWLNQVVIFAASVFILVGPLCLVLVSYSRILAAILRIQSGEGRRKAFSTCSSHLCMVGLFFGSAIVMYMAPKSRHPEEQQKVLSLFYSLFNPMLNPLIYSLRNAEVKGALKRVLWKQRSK
Chain of human class II OR identified in the library screening (Homo sapiens, UniProt O60403) (O60403 whole entry): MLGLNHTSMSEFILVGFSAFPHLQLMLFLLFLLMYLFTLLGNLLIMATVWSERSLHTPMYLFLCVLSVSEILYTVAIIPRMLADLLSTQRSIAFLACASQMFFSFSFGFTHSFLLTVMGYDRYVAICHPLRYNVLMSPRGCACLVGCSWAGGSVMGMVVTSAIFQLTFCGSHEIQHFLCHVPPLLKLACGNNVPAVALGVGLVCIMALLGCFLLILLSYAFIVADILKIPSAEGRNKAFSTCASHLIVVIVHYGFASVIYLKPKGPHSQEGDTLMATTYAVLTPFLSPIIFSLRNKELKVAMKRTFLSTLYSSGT

Structure (SMILES): CC/C(C)=C/CC[C@H](C)CCO [(E,S)-3,7-dimethylnon-6-en-1-ol]
Detection threshold; concentration for 2-fold induction, wild-type [1]: no
Detection threshold; concentration for 2-fold induction, changed C-term. [2]: 3.0 µM
EC50 [3]: 34.6 µM
Fold improvement efficacy ([4]; OR1D2, modified C-terminus SEQ ID NO: 221 vs wild-type): 14.9 fold

Structure (SMILES): CC(CO)C1=C2C(C)(C)C3CCC2(C3)C(C)(C)CC1 (stereo not shown) [Ambermax]
Comments on efficacy (OR7C1 [5]): 3.5-fold lower
ligand specificity in cells expressing OR7A17 and/or OR7C1 (OR7A17 and OR7C1): specific ligand for OR7C1
Detection threshold; concentration for 2-fold induction (OR7C1 [6]; changed C-term. SEQ ID NO: 86): 0.17 µM
Fold-improvement potency (OR7C1 [6]; changed C-term. vs wild-type): 2.7
Detection threshold; concentration for 2-fold induction (OR7C1 [6]; wild-type): 2.76 µM

Structure (SMILES): O=C(OCc1ccccc1)c1ccccc1O [Benzyl salicylate]
Detection threshold; concentration for 2-fold induction, wild-type [7]: no
Detection threshold; concentration for 2-fold induction, changed C-term. [2]: 1.3 µM
EC50 [8]: 4.5 µM
Fold improvement efficacy ([4]; OR2AG2 (Y28C), modified C-terminus SEQ ID NO: 221 vs wild-type): 10.2 fold

Detection threshold; concentration for 2-fold induction, wild-type [9]: no
Detection threshold; concentration for 2-fold induction, changed C-term. [2]: 108.6 µM
EC50 ([4]; OR10H2, modified C-terminus SEQ ID NO: 221 (SEQ ID NO: 680)): 226 µM
Structure (SMILES): CC(C)c1ccc2c(c1)OCC(=O)CO2 [Cascalone]
Fold improvement efficacy ([4]; OR10H2, modified C-terminus SEQ ID NO: 221 vs wild-type): 7.0 fold

Structure (SMILES): SC1CCCC1 [Cyclopentanethiol, reference compound]
Comments on efficacy (OR2T4 [10]): No induction
ligand identification in sulfur odorant screen (OR2T4 [10]; OR2T4 with optimized C-terminus SEQ ID NO: 86): good ligands
Fold-improvement potency (OR2T4 [10]; changed C-term. vs wild-type): >>22
Fold-improvement threshold (OR2T4 [10]; changed C-term. vs wild-type): >>100
EC50 (OR2T4 [11]): > 316 µM

Structure (SMILES): CC1=C(O)C(=O)C(C)O1 (stereo not shown) [Furaneol]
Detection threshold; concentration for 2-fold induction, wild-type [12]: 30.5 µM
Detection threshold; concentration for 2-fold induction, changed C-term. [2]: 0.3 µM
EC50 [13]: 8.7 µM
EC50 [14]: 65.3 µM
Potency, Fold-improvement ([4]; OR5M3, EC50 modified C-terminus SEQ ID NO: 221 vs wild-type): 7.5 fold
Fold improvement efficacy [4, 23]: 16.8 fold
Detection threshold; Fold improvement efficacy [4, 23]: 100.7 fold

Structure (SMILES): CC=Cc1ccc(O)c(OC)c1 [Isoeugenol]
Detection threshold; concentration for 2-fold induction, wild-type [15]: no
Detection threshold; concentration for 2-fold induction, changed C-term. [2]: 1.4 µM
EC50 [16]: 8.4 µM
Fold improvement efficacy ([4]; OR10D3, modified C-terminus SEQ ID NO: 221 vs wild-type): 6.1 fold

Detection threshold; concentration for 2-fold induction, wild-type [17]: no
Detection threshold; concentration for 2-fold induction, wild-type [18]: no
EC50 ([4]; OR2A5, modified C-terminus SEQ ID NO: 221 (SEQ ID NO: 374)): 18 µM
EC50 ([4]; OR2A25, modified C-terminus SEQ ID NO: 221 (SEQ ID NO: 370)): 11 µM
Structure (SMILES): CC(C)=CCC(C)C1CC1(C)CO (stereo not shown) [Rosyfolia]
Fold improvement efficacy ([4]; OR2A5, modified C-terminus SEQ ID NO: 221 vs wild-type): 3.0 fold
Fold improvement efficacy ([4]; OR2A25, modified C-terminus SEQ ID NO: 221 vs wild-type): 7.6 fold

Detection threshold; concentration for 2-fold induction, wild-type [19]: no
Detection threshold; concentration for 2-fold induction, wild-type [20]: no
EC50 ([4]; OR7A5, modified C-terminus SEQ ID NO: 221 (SEQ ID NO: 612)): 5.6 µM
EC50 ([4]; OR7A10, modified C-terminus SEQ ID NO: 221 (SEQ ID NO: 610)): 0.16 µM
Structure (SMILES): C=C(C)[C@@H]1CC[C@H](C)C2=C(C1)[C@@H](C)CC2=O [Rotundone]
Fold improvement efficacy ([4]; OR7A5, modified C-terminus SEQ ID NO: 221 vs wild-type): 24. fold
Fold improvement efficacy ([4]; OR7A10, modified C-terminus SEQ ID NO: 221 vs wild-type): 5.9 fold

Structure (SMILES): CC1=C(O)C(=O)OC1C (stereo not shown) [Sotolone]
Detection threshold; concentration for 2-fold induction, wild-type [21]: 2.5 µM
Potency, Fold-improvement ([4]; OR8D1, EC50 modified C-terminus SEQ ID NO: 221 vs wild-type): 2.5 fold
Detection threshold; concentration for 2-fold induction, changed C-term. [4, 24]: 0.48 µM
Fold improvement efficacy [4, 25]: 2.1 fold
Detection threshold; Fold improvement efficacy [4, 25]: 5.2 fold
EC50 [4, 24]: 7.5 µM

Structure (SMILES): COc1cc(C=O)ccc1O [Vanillin]
EC50 [22]: 15.3 µM
